# From PubChem BioAssay (NCI)
#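 Each compound was tested at five concentrations against cells in 96-well plates for 48 hours. Here, GI50 denotes the concentration required for 50% inhibition of growth. TGI denotes the concentration required for complete inhibition of growth.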
# How the values were obtained:
# Experiment in all cases: NCI-60 cell line screen, 48 h
# RXF 393 renal = tested on: RXF 393 renal
# M14 melanoma = tested on: M14 melanoma
# COLO 205 colon = tested on: COLO 205 colon
# MOLT-4 leukemia = tested on: MOLT-4 leukemia
# CCRF-CEM leukemia = tested on: CCRF-CEM leukemia
# PC-3 prostate = tested on: PC-3 prostate
# MALME-3M melanoma = tested on: MALME-3M melanoma
# OVCAR-8 ovarian = tested on: OVCAR-8 ovarian
# HCT-116 colon = tested on: HCT-116 colon
# NCI-H460 lung = tested on: NCI-H460 lung
# SN12C renal = tested on: SN12C renal
# MCF7 breast = tested on: MCF7 breast
# UO-31 renal = tested on: UO-31 renal
# SK-MEL-28 melanoma = tested on: SK-MEL-28 melanoma
# UACC-257 melanoma = tested on: UACC-257 melanoma
# RPMI-8226 leukemia = tested on: RPMI-8226 leukemia
# NCI-H23 lung = tested on: NCI-H23 lung
# HS 578T breast = tested on: HS 578T breast
# EKVX NSCLC = tested on: EKVX NSCLC
# LOX IMVI melanoma = tested on: LOX IMVI melanoma
# U251 CNS = tested on: U251 CNS
# KM12 colon = tested on: KM12 colon
# IGROV1 ovarian = tested on: IGROV1 ovarian
# HT29 colon = tested on: HT29 colon
# OVCAR-3 ovarian = tested on: OVCAR-3 ovarian
# T-47D breast = tested on: T-47D breast
# ACHN renal = tested on: ACHN renal
# NCI-H226 lung = tested on: NCI-H226 lung
# OVCAR-5 ovarian = tested on: OVCAR-5 ovarian
smiles,measurement,setting,value
CSc1ccc(NC(=O)c2ccc3nnn(/C(C#N)=C/c4ccccn4)c3c2)cc1,GI50,RXF 393 renal,1320 nM
same,TGI,RXF 393 renal,2600 nM
same,GI50,M14 melanoma,1670 nM
same,TGI,M14 melanoma,3.27 µM
same,GI50,COLO 205 colon,1110 nM
same,TGI,COLO 205 colon,2390 nM
same,GI50,MOLT-4 leukemia,1830 nM
same,TGI,MOLT-4 leukemia,8.33 µM
same,GI50,CCRF-CEM leukemia,1380 nM
same,TGI,CCRF-CEM leukemia,8.01 µM
same,GI50,PC-3 prostate,2040 nM
same,TGI,PC-3 prostate,4.37 µM
same,GI50,MALME-3M melanoma,1570 nM
same,TGI,MALME-3M melanoma,2960 nM
same,GI50,OVCAR-8 ovarian,1750 nM
same,TGI,OVCAR-8 ovarian,3.68 µM
same,GI50,HCT-116 colon,1740 nM
same,TGI,HCT-116 colon,3.55 µM
same,GI50,NCI-H460 lung,1930 nM
same,TGI,NCI-H460 lung,4.59 µM
same,GI50,SN12C renal,1780 nM
same,TGI,SN12C renal,3.51 µM
same,GI50,MCF7 breast,1010 nM
same,TGI,MCF7 breast,2510 nM
same,GI50,UO-31 renal,1350 nM
same,TGI,UO-31 renal,2640 nM
same,GI50,SK-MEL-28 melanoma,1480 nM
same,TGI,SK-MEL-28 melanoma,2820 nM
same,GI50,UACC-257 melanoma,1600 nM
same,TGI,UACC-257 melanoma,3.07 µM
same,GI50,RPMI-8226 leukemia,1460 nM
same,TGI,RPMI-8226 leukemia,4.7 µM
same,GI50,NCI-H23 lung,1590 nM
same,TGI,NCI-H23 lung,2970 nM
same,GI50,HS 578T breast,2070 nM
same,TGI,HS 578T breast,4.96 µM
same,GI50,EKVX NSCLC,1590 nM
same,TGI,EKVX NSCLC,3000 nM
same,GI50,LOX IMVI melanoma,879 nM
same,TGI,LOX IMVI melanoma,2120 nM
same,GI50,U251 CNS,1560 nM
same,TGI,U251 CNS,3.05 µM
same,GI50,KM12 colon,1600 nM
same,TGI,KM12 colon,3.27 µM
same,GI50,IGROV1 ovarian,1870 nM
same,TGI,IGROV1 ovarian,3.57 µM
same,GI50,HT29 colon,1890 nM
same,TGI,HT29 colon,3.89 µM
same,GI50,OVCAR-3 ovarian,1220 nM
same,TGI,OVCAR-3 ovarian,2540 nM
same,GI50,T-47D breast,1330 nM
same,TGI,T-47D breast,3.06 µM
same,GI50,ACHN renal,1690 nM
same,TGI,ACHN renal,3.06 µM
same,GI50,NCI-H226 lung,2290 nM
same,TGI,NCI-H226 lung,6.14 µM
same,GI50,OVCAR-5 ovarian,1600 nM
same,TGI,OVCAR-5 ovarian,3.02 µM
